We go through 27 compounds from patent US7544694B2, “Substituted diaza-spiro-[5.5]-undecane derivatives and their use as neurokinin antagonists” (Janssen Pharmaceutica N.V., priority 2004, dated 2009).

Common to all, as to format: cell-based
The target in assay [1] is NK1 (Homo sapiens, UniProt P25103). Nature of the assay: Signal transduction (ST), intracellular Ca++ (FLIPR), functional NK1 antagonistic activity. To be noted: antagonist, read-out: NK1 pIC50 (converted). Here is the method:
(§1) This test evaluates in vitro functional NK1 antagonistic activity. For the measurements of intracellular Ca^++ concentrations the cells were grown on 96-well (black wall/transparent bottom) plates from Costar for 2 days until they reached confluence. The cells were loaded with 2 μM Fluo3 in DMEM containing 0.1% BSA and 2.5 mM probenecid for 1 h at 37° C. They were washed 3× with a Krebs buffer (140 mM NaCl, 1 mM MgCl2×6H2O, 5 mM KCl, 10 mM glucose, 5 mM HEPES; 1.25 mM CaCl2; pH 7.4) containing 2.5 mM probenecid and 0.1% BSA (Ca^++-buffer). The cells were preincubated with a concentration range of antagonists for 20 min at RT and Ca^++-signals after addition of the agonists were measured in a Fluorescence Image Plate Reader (FLIPR from Molecular Devices, Crawley, England). The peak of the Ca^++-transient was considered as the relevant signal and the mean values of corresponding wells were analysed as described below.
(§2) The sigmoidal dose response curves were analysed by computerised curve-fitting, using the GraphPad Program. The EC50-value of a compound is the effective dose showing 50% of maximal effect. For mean curves the response to the agonist with the highest potency was normalised to 100%. For antagonist responses the IC50-value was calculated using non-linear regression.
(§3) The last columns indicate—without being limited thereto—for which action the compounds might be most suitable. Of course, since for some neurokinin receptors no data was determined, it is obvious that these compounds might be attributed to another suitable use.

The target of assay [2] is T1, NK2 (Homo sapiens, UniProt P21452).
T1 sequence (P21452 1-398): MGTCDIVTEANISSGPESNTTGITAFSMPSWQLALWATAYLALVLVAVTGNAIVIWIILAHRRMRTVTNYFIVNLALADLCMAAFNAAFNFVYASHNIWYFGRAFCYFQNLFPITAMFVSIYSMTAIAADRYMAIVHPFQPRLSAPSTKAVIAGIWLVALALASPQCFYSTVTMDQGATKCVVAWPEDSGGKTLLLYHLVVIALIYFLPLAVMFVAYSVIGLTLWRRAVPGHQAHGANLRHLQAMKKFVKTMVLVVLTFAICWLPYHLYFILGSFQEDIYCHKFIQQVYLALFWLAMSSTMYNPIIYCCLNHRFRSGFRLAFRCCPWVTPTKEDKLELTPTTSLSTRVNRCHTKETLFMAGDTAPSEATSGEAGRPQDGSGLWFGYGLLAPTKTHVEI
Nature of the assay: Signal transduction (ST), intracellular Ca++ (FLIPR), NK2. The settings on record: antagonist, read-out: NK2 pIC50 (converted). On the procedure: [The source words this procedure for another target and reports this target under the same test.] as §1, §2, §3

The target in assay [3] is T2, NK3 (Homo sapiens, UniProt P29371).
T2 sequence (P29371 1-465): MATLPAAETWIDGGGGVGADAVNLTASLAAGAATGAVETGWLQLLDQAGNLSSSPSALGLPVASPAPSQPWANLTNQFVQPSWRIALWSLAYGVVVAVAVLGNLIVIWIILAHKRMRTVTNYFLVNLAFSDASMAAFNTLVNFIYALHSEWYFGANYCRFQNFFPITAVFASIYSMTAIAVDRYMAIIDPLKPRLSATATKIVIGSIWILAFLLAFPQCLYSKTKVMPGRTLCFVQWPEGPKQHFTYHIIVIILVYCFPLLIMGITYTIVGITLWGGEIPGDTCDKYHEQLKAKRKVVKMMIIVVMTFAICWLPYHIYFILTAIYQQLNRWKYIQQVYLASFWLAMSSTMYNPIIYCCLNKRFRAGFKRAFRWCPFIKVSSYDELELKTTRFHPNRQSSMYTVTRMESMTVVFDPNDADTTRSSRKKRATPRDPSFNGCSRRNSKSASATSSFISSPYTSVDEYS
Briefly: Signal transduction (ST), intracellular Ca++ (FLIPR), NK3. To be noted: antagonist, read-out: NK3 pIC50 (converted). On the procedure: [The source words this procedure for another target and reports this target under the same test.] as §1, §2, §3

NK1, sequence (P25103 whole entry): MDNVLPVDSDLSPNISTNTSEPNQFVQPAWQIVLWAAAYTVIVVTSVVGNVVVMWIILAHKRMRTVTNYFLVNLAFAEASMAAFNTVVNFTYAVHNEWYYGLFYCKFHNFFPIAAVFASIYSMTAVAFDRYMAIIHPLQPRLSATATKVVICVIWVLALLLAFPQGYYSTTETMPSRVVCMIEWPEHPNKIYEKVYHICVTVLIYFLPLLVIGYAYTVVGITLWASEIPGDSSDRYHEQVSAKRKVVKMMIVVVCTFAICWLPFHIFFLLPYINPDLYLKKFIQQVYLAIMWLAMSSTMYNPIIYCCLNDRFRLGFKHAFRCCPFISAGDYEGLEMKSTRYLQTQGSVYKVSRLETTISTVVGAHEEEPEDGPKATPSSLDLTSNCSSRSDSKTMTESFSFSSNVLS

Consider `O=C(c1cc(C(F)(F)F)cc(C(F)(F)F)c1)N1CC[C@H](N2CCC3(CC2)CCN(S(=O)(=O)c2ccc(Cl)c(Cl)c2)CC3)C[C@H]1Cc1ccccc1` [Compound 113], for which the IC50 in assay [1] is 427 nM; in assay [2], greater than 10000 nM; in assay [3], greater than 10000 nM.

Take `COc1ccc(S(=O)(=O)N2CCC3(CCN([C@H]4CCN(C(=O)c5cc(C(F)(F)F)cc(C(F)(F)F)c5)[C@H](Cc5ccccc5)C4)CC3)CC2)cc1` [Compound 121]: the IC50 in assay [1] is 112 nM; in assay [2] it was 1200 nM; in assay [3] it was 3720 nM.

With `Cc1noc(C)c1C(=O)N1CCC2(CC1)CCN([C@H]1CCN(C(=O)c3cc(C(F)(F)F)cc(C(F)(F)F)c3)[C@H](Cc3ccccc3)C1)CC2` [Compound 35], the IC50 was 19.1 nM in assay [1], greater than 10000 nM in assay [2] and greater than 10000 nM in assay [3].

As to `CC(C)CN1CCC2(CCN([C@@H]3CCN(C(=O)c4cc(C(F)(F)F)cc(C(F)(F)F)c4)[C@H](Cc4ccccc4)C3)CC2)CC1=O` [Compound 193], the IC50 in assay [1] is 240 nM; in assay [2], 2510 nM; in assay [3], 5750 nM.

As to `O=C(c1ccsc1)N1CCC2(CCN(C[C@H]3CCN(C(=O)c4cc(C(F)(F)F)cc(C(F)(F)F)c4)[C@H](Cc4ccccc4)C3)CC2)CC1` [Compound 182], the IC50 is 38 nM in assay [1], greater than 10000 nM in assay [2] and 9120 nM in assay [3].

Consider `O=C(C(CO)c1ccccc1)N1CCC2(CC1)CCN([C@H]1CCN(C(=O)c3cc(C(F)(F)F)cc(C(F)(F)F)c3)[C@H](Cc3ccccc3)C1)CC2` (stereo partly drawn) [Compound 88], for which the IC50 in assay [1] is 41.7 nM; in assay [2], 3020 nM; in assay [3], greater than 10000 nM.

On to `O=C(C1CCOC1)N1CCC2(CCN(C[C@H]3CCN(C(=O)c4cc(C(F)(F)F)cc(C(F)(F)F)c4)[C@H](Cc4ccccc4)C3)CC2)CC1` (stereo partly drawn) [Compound 180], for which the IC50 was 14.8 nM in assay [1], 8320 nM in assay [2] and greater than 10000 nM in assay [3].

Take `O=C(CN1CCCC1=O)N1CCC2(CC1)CCN([C@H]1CCN(C(=O)c3cc(C(F)(F)F)cc(C(F)(F)F)c3)[C@H](Cc3ccccc3)C1)CC2` [Compound 78]: the values for the IC50 in assay [1], in assay [2] and in assay [3] were 269 nM, greater than 10000 nM and greater than 10000 nM, respectively.

For `O=C1CC2(CCN1Cc1ccccc1F)CCN([C@H]1CCN(C(=O)c3cc(C(F)(F)F)cc(C(F)(F)F)c3)[C@H](Cc3ccccc3)C1)CC2` [Compound 202], the IC50 in assay [1] is 245 nM; in assay [2] it was 4570 nM; in assay [3], 7240 nM.

Consider `O=C(c1cc(C(F)(F)F)cc(C(F)(F)F)c1)N1CC[C@H](N2CCC3(CCN(C(=O)C45CC6CC(CC(C6)C4)C5)CC3)CC2)C[C@H]1Cc1ccccc1` [Compound 60], for which the IC50 in assay [1] is 240 nM; in assay [2] it was 4680 nM; in assay [3] it was 4680 nM.

In the case of `O=C(c1cc(C(F)(F)F)cc(C(F)(F)F)c1)N1CC[C@H](N2CCC3(CC2)CCN(S(=O)(=O)c2ccc(F)cc2)CC3)C[C@H]1Cc1ccccc1` [Compound 116], the IC50 in assay [1] was 52.5 nM; in assay [2], greater than 10000 nM; in assay [3], 708 nM.

Take `O=C1CC2(CCN1Cc1ccoc1)CCN([C@H]1CCN(C(=O)c3cc(C(F)(F)F)cc(C(F)(F)F)c3)[C@H](Cc3ccccc3)C1)CC2` [Compound 199]: the IC50 in assay [1] is 37.2 nM; in assay [2] it was 2750 nM; in assay [3] it was 851 nM.

Turning to `O=C(CN1CCOC1=O)N1CCC2(CC1)CCN([C@H]1CCN(C(=O)c3cc(C(F)(F)F)cc(C(F)(F)F)c3)[C@H](Cc3ccccc3)C1)CC2` [Compound 79], the IC50 in assay [1] was 170 nM; in assay [2] it was greater than 10000 nM; in assay [3], greater than 10000 nM.

As to `Cn1cccc1C(=O)N1CCC2(CC1)CCN([C@H]1CCN(C(=O)c3cc(C(F)(F)F)cc(C(F)(F)F)c3)[C@H](Cc3ccccc3)C1)CC2` [Compound 33], the IC50 was 200 nM in assay [1], greater than 10000 nM in assay [2] and greater than 10000 nM in assay [3].

In the case of `O=C(c1ccc2c(c1)OCO2)N1CCC2(CC1)CCN([C@H]1CCN(C(=O)c3cc(C(F)(F)F)cc(C(F)(F)F)c3)[C@H](Cc3ccccc3)C1)CC2` [Compound 62], the IC50 in assay [1] was 186 nM; in assay [2], greater than 10000 nM; in assay [3], greater than 10000 nM.

As for `O=C(C1=CCCCC1)N1CCC2(CC1)CCN([C@H]1CCN(C(=O)c3cc(C(F)(F)F)cc(C(F)(F)F)c3)[C@H](Cc3ccccc3)C1)CC2` [Compound 41], the IC50 in assay [1] was 148 nM; in assay [2], 8510 nM; in assay [3], greater than 10000 nM.

For the compound `O=C1CCC(C(=O)N2CCC3(CC2)CCN([C@H]2CCN(C(=O)c4cc(C(F)(F)F)cc(C(F)(F)F)c4)[C@H](Cc4ccc(F)c(F)c4)C2)CC3)N1` (stereo partly drawn) [Compound 139], the IC50 in assay [1] is 38.9 nM; in assay [2] it was 2400 nM; in assay [3], 955 nM.

As to `O=C(c1ccc[nH]c1=O)N1CCC2(CC1)CCN([C@H]1CCN(C(=O)c3cc(C(F)(F)F)cc(C(F)(F)F)c3)[C@H](Cc3ccccc3)C1)CC2` [Compound 55], the IC50 in assay [1] is 158 nM; in assay [2], 3980 nM; in assay [3] it was greater than 10000 nM.

Turning to `O=C(c1cc(C(F)(F)F)cc(C(F)(F)F)c1)N1CC[C@H](N2CCC3(CC2)CCN(S(=O)(=O)Cc2cccc(Cl)c2)CC3)C[C@H]1Cc1ccccc1` [Compound 127], the IC50 in assay [1] was 263 nM; in assay [2] it was 4680 nM; in assay [3] it was greater than 10000 nM.

Take `O=C(c1ccoc1)N1CCCC2(CCCN(C3CCN(C(=O)c4cc(C(F)(F)F)cc(C(F)(F)F)c4)C(Cc4ccccc4)C3)C2)C1` (stereo not drawn) [Compound 212]: the results for the IC50 in assay [1], in assay [2] and in assay [3] were 631 nM, 3550 nM and 3800 nM, respectively.

With `O=C(NCC(=O)N1CCC2(CC1)CCN([C@H]1CCN(C(=O)c3cc(C(F)(F)F)cc(C(F)(F)F)c3)[C@H](Cc3ccccc3)C1)CC2)c1ccco1` [Compound 73], the IC50 was 33.1 nM in assay [1], greater than 10000 nM in assay [2] and greater than 10000 nM in assay [3].

For `O=C(C=Cc1ccoc1)N1CCC2(CC1)CCN([C@H]1CCN(C(=O)c3cc(C(F)(F)F)cc(C(F)(F)F)c3)[C@H](Cc3ccccc3)C1)CC2` [Compound 85], the results for the IC50 in assay [1], in assay [2] and in assay [3] were 309 nM, greater than 10000 nM and greater than 10000 nM, respectively.

For `Cc1nc(S(=O)(=O)N2CCC3(CCN([C@H]4CCN(C(=O)c5cc(C(F)(F)F)cc(C(F)(F)F)c5)[C@H](Cc5ccccc5)C4)CC3)CC2)cn1C` [Compound 100], the results for the IC50 in assay [1], in assay [2] and in assay [3] were 12 nM, 1260 nM and 331 nM, respectively.

As to `O=C(c1cc(C(F)(F)F)cc(C(F)(F)F)c1)N1CC[C@H](N2CCC3(CC2)CCN(S(=O)(=O)c2c(Cl)sc(Cl)c2Br)CC3)C[C@H]1Cc1ccccc1` [Compound 99], the IC50 was 562 nM in assay [1], greater than 10000 nM in assay [2] and greater than 10000 nM in assay [3].

In the case of `Cc1cn(CC(=O)N2CCC3(CC2)CCN([C@H]2CCN(C(=O)c4cc(C(F)(F)F)cc(C(F)(F)F)c4)[C@H](Cc4ccccc4)C2)CC3)c(=O)[nH]c1=O` [Compound 80], the IC50 in assay [1] is 29.5 nM; in assay [2] it was greater than 10000 nM; in assay [3], greater than 10000 nM.

`O=C(c1cc(C(F)(F)F)cc(C(F)(F)F)c1)N1CC[C@H](N2CCC3(CC2)CCN(S(=O)(=O)c2cccc(Cl)c2)CC3)C[C@H]1Cc1ccccc1` [Compound 107]: the IC50 was 115 nM in assay [1], 4170 nM in assay [2] and 3160 nM in assay [3].

Take `CC(C)(C)CC(=O)N1CCC2(CC1)CCN([C@H]1CCN(C(=O)c3cc(C(F)(F)F)cc(C(F)(F)F)c3)[C@H](Cc3ccccc3)C1)CC2` [Compound 69]: the values for the IC50 in assay [1], in assay [2] and in assay [3] were 64.6 nM, 3090 nM and 6610 nM, respectively.
